Source: patent publication US20240285627A1, “DRUG COMBINATION OF FAK INHIBITOR AND IMMUNOGENIC CELL DEATH INDUCER AND USE THEREOF” (INXMED (NANJING) CO., LTD., priority 2022, published 2024)
pIC50: −log10 of the molar value.

Legend:
Type in all cases: cell-based
[1] = system: Mouse colon cancer CT26 cells; test: Proliferation of CT26 cells, CCK8, Lurbinectedin with or without IN10018 (Example 1); settings: 72 hours, combination group: 6 μM IN10018 added to each well
Procedure: Mouse colon cancer CT26 cells (Insitute of Biochemistry and Cell Biology) were cultured with RPMI-1640 (Shanghai Basalmedia, classification number: L210KJ, batch number: F210916)+10% FBS (Gibco, classification number: 10099-141c, batch number: 2158737cp) and passaged twice. When the cells were in good condition, the culture solution was placed in a 96-well plate with 3000 cells/well. After the cells were spread for 24 hours, a culture medium containing Lurbinectedin (DC chemicals, classification number: DC12502, batch number: DC1250203) was added. 10 drug action concentrations were set, wherein the first concentration was 0.1 μM, which was serially diluted 4 times, and the last concentration was a control with a drug concentration of 0. Each drug concentration was set in triplicate. At the same time, another group of cells was established with the same drug concentration as the above method. The difference was that 6 μM IN10018 was added to each well. The drugs were mixed and the mixture was cultured in a 5% CO2 incubator at 37° C. for 72 hours.
After 72 hours of drug action, the cells were observed under a microscope, and 10 μl of CCK8 detection reagent (Cellorlab, classification number: CX001M, batch number: 2571100) was added to each well. […] Then the plate was read with a microplate reader OD450 ([…]).

[2] = system: Mouse colon cancer CT26 cells; test: CT26 cells with IN10018 and Lurbinectedin: microscope and flow cytometry for CRT / Annexin V (Example 2); settings: CT26, 48 hours; IN10018 5 μM, Lurbinectedin 0.00142 μM
Procedure: Mouse colon cancer CT26 cells (Insitute of Biochemistry and Cell Biology) were cultured with RPMI-1640 (Shanghai Basalmedia, classification number: L210KJ, batch number: F210916)+10% FBS (Gibco, classification number: 10099-141c, batch number: 2158737cp) and passaged twice. When the cells were in good condition, the culture solution was placed in a 24-well plate. After the cells were spread for 24 hours, four groups were set up, wherein the first group was a control group, and the culture medium was added; the second group was IN10018 with a concentration of 5 μM; the third group was Lurbinectedin (DC chemicals, classification number: DC12502, batch number: DC1250203) with a concentration of 0.00142 μM; and the fourth group was IN10018 (5 μM) combined with Lurbinectedin (0.00142 μM). The drugs were mixed and the mixture was cultured in a 5% CO2 incubator at 37° C. for 48 hours.
After 48 hours of drug action, the cells were observed under a microscope and photographed, and the photos were kept. Then the cells were collected, subjected to flow analysis, and washed twice with flow buffer (PBS+2% FBS). 0.5 μl of AF647 anti-Calreticulin antibody (abcam, classification number: ab196159, batch number: CR33676773) was added to each well and fully mixed. […] The mixture was cultured at room temperature in the dark for 15 minutes, and then analyzed by flow cytometry.

[3] = system: Mouse colon cancer CT26 cells; test: Induction of immunogenic cell death targets by Crizotinib and IN10018 in CT26 cells (Example 7); settings: CT26, 48 hours; IN10018 5 μM, Crizotinib 3 μM
Procedure: CT26 cells were cultured in monolayer in vitro, and the culture conditions were: RPMI-1640 medium with 10% fetal bovine serum, 37° C. and 5% CO2. Trypsin was used for routine digestion and passage treatment two or three times a week. When the cells were in exponential growth period and the adherent confluence reached 80%-90%, the cells were collected and plated.
CT26 cells were digested with trypsin, then collected and counted. According to the counting results, the cells were diluted with RPMI-1640+10% FBS, and the dilution concentration was 50,000 cells per ml. Then, the cells were plated on 24-well culture plates, and 1 ml of cell suspension (50,000 cells) was laid in each well. After plating, the cells were cultured in 37° C. and 5% CO2 incubator. […]
After the cells were washed twice with flow buffer (DPBS+2% FBS), the cells in each group were divided into two parts on average, one of which was added with 0.5 μl of AF647 anti-Calreticulin antibody in each well, then mixed well, and incubated in the dark for 20 minutes at 4° C. […] The cells were cultured at room temperature in the dark for 15 minutes, and then analyzed by flow cytometry.
Data analysis: After the assay, the cell positive rate was analyzed by Flowjo(V10) software.

Structure (SMILES) | pIC50 [1] | cell state under a microscope [2] | cell state under a microscope (cell death; cell viability) [3]
COc1ccc2[nH]c3c(c2c1)CCN[C@]31CS[C@@H]2c3c(OC(C)=O)c(C)c4c(c3[C@H](COC1=O)N1[C@@H]2[C@H]2c3c(cc(C)c(OC)c3O)C[C@@H]([C@@H]1O)N2C)OCO4 [Lurbinectedin] | 9.15 | poor | 
C[C@@H](Oc1cc(-c2cnn(C3CCNCC3)c2)cnc1N)c1c(Cl)ccc(F)c1Cl [Crizotinib] |  |  | cell death was obvious
